Data set [1] is described as follows: Log P of drug. The class given is physicochemical. The conditions noted are these: octanol/water. From the text:
The first property of hydrophobic drugs is that they are extremely hydrophobic. Log P, defined as the base 10 logarithm of the ratio of the drug solubility in octanol to the drug solubility in water, is a widely accepted measure of hydrophobicity. By “extremely hydrophobic” is meant that the Log P value of the drug is at least 4.0, preferably at least 4.5, and most preferably at least 5.0. Log P may be measured experimentally or calculated using methods known in the art. When using a calculated value for Log P, the highest value calculated using any generally accepted method for calculating Log P is used. Calculated Log P values are often referred to by the calculation method, such as Clog P, Alog P, and Mlog P. The Log P may also be estimated using fragmentation methods, such as Crippen's fragmentation method (27 J. Chem. Inf. Comput. Sci. 21 (1987)); Viswanadhan's fragmentation method (29 J. Chem. Inf. Comput. Sci. 163 (1989)); or Broto's fragmentation method (19 Eur. J. Med. Chem.-Chim. Theor. 71 (1984). Preferably the Log P value is calculated by using the average value estimated using Crippen's, Viswanadhan's, and Broto's fragmentation methods.

Data set [2] in a line: Solubility of drug in water. The class given is physicochemical.
How the values of data set [3] were obtained: The polymer is a poorly aqueous soluble non-ionizable polymer. […] An appropriate PBS solution is an aqueous solution consisting of 20 mM sodium phosphate (Na2HPO4), 47 mM potassium phosphate (KH2PO4), 87 mM NaCl, and 0.2 mM KCl, adjusted to pH 6.5 with NaOH. A test to determine whether the polymer is poorly aqueous soluble may be performed as follows. The polymer is initially present in bulk powder form with average particle sizes of greater than about 1 micron. The polymer alone is administered at a concentration of 0.2 mg/mL to the PBS solution and stirred for approximately 1 hour at room temperature. Next, a nylon 0.45 μm filter is weighed, and the polymer solution is filtered. The filter is dried overnight at 40° C., and weighed the following morning. The amount of polymer dissolved is calculated from the amount of polymer added to the PBS solution minus the amount of polymer remaining on the filter (mg). […] First, 0.2 mg/mL of the polymer was added to a PBS solution consisting of 20 mM Na2HPO4, 47 mM KH2PO4, 87 mM NaCl, and 0.2 mM KCl, adjusted to pH 6.5 with NaOH. The polymer was stirred in the PBS solution for approximately 1 hour at room temperature. […] The amount of soluble polymer was calculated from the amount of polymer added to form the polymer solution minus the amount of polymer remaining on the filter.

A short description of data set [4]: Solubility in model fasted duodenal (MFD) solution. It counts as physicochemical. The following applies: fassgf or other biorelevant, PBS containing 7.3 mM sodium taurocholic acid and 1.4 mM 1-palmitoyl-2-oleyl-sn-glycero-3-phosphocholine.

≈ marks a conversion by molar mass, not a printed value. Where only a bound is given, the exact number is not on record here.

Consider `CC[C@@H]1C[C@H](N(Cc2cc(C(F)(F)F)cc(C(F)(F)F)c2)C(C)=O)c2cc(C(F)(F)F)ccc2N1C(=O)OC(C)C` [Drug 2, [2R,4S]-4-[acetyl-(3,5-bis-trifluoromethyl-benzyl)-amino]-2-ethyl-6-trifluoromethyl-3,4-dihydro-2H-quinoline-1-carboxylic acid isopropyl ester], for which the logP in data set [1] came out at 6.7. For the same compound, in data set [2], the solubility was under 1 µg/mL. For ethylcellulose, the “Amount Soluble at pH 6.5” value in data set [3] is reported as under 0.001 mg/mL.

For cellulose acetate, the “Amount Soluble at pH 6.5” value in data set [3] worked out at 0.03 mg/mL.

As to `Cc1onc(-c2ccccc2)c1-c1ccc(S(N)(=O)=O)cc1` [Drug 1, 4-(5-methyl-3-phenyl-4-isoxazolyl) benzenesulfonamide, reference compound], in data set [1], the logP is about 3. In addition, the solubility in data set [2] is about 10 µg/mL (≈ 31.8 µM). Consider `Cc1ccc(-c2cc(C(F)(F)F)nn2-c2ccc(S(N)(=O)=O)cc2)cc1` [Drug 3, 4-[5-(4-methylphenyl)-3-(trifluoromethyl)-1H-pyrazol-1-yl]benzenesulfonamide], for which the solubility in data set [4] was about 40 µg/mL (≈ 105 µM).

The term logP denotes the decadic logarithm of the partition coefficient of the neutral form, usually between octanol and water. Low readings indicate a more hydrophilic compound, high ones a more lipophilic compound. As a reminder, the solubility is the dissolved amount per volume that the medium holds. A low value points to little dissolved substance.

Source of the values: patent US20100266692A1, “NANOPARTICLES COMPRISING A NON-IONIZABLE POLYMER AND AN ANIONIC CELLULOSIC POLYMER” (priority 2007, published 2010).
